Experiments:
S. aureus Newman = test: Bliss interaction score (quartile over a dose matrix) (fitness difference); higher = more antagonism (negative = synergy)
Summary of the method: (§1)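 Values were capped at 1 after dividing OD595 at stationary-phase entry by the plate's robust no-drug mean. This ratio is fitness, and single-drug fitness was inferred from the combination data. The Bliss score is observed minus product-expected fitness, given as quartiles over technical, biological and donor/recipient replicates.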

S. aureus DSM 20231 = test: as above
Summary of the method: as §1

B. subtilis 168 [1] = test: as above
Summary of the method: as §1

S. pneumoniae D39V [2] = test: as above
Summary of the method: as §1

B. subtilis 168 [3] = test: fitness (endpoint OD595 vs no drug) (fraction); higher = more growth
Summary of the method: (§2)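 Volumes were 30 µl per well, or 55 µl for S. pneumoniae, in 384-well plates inoculated at OD595 0.01. Media were TSB, LB Lennox or CY at 37 °C, and OD595 was read every 30 min for 14 h with first-reading background subtraction. Fitness is the ratio of optical density at stationary-phase entry to the robust mean of no-drug controls. That ratio is capped at 1.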

S. pneumoniae D39V [4] = test: as above; details: main component drawn
Summary of the method: as §2
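Throughout, for Bliss interaction score (quartile over a dose matrix): first quartile when negative (synergy) and third quartile when positive (antagonism).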

CNC(C)C1CCC(N)C(OC2C(N)CC(N)C(OC3OCC(C)(O)C(NC)C3O)C2O)O1 (centres undefined) [Gentamicin] + CCC(C)C1C(=O)NC(=C)C(=O)NC(C(=O)NC(CSCC(C(=O)N1)NC(=O)/C(=C/C)/NC(=O)C(C(C)CC)N)C(=O)NC2C(SCC(NC(=O)CNC(=O)C3CCCN3C2=O)C(=O)NC(CCCCN)C(=O)NC4C(SCC(NC(=O)CNC(=O)C(NC(=O)C(NC(=O)C(NC(=O)CNC4=O)C)CC(C)C)CCSC)C(=O)NC(CC(=O)N)C(=O)NC(CCSC)C(=O)NC(CCCCN)C(=O)NC5C(SCC6C(=O)NC(C(=O)NC(CSC(C(C(=O)N6)NC(=O)C(NC5=O)C)C)C(=O)NC(CO)C(=O)NC(C(C)CC)C(=O)NC(CC7=CN=CN7)C(=O)NC(C(C)C)C(=O)NC(=C)C(=O)NC(CCCCN)C(=O)O)CC8=CN=CN8)C)C)C)CC(C)C [Nisin]
main component drawn
Details | Bliss interaction score
B. subtilis 168 [1] | -0.0796
S. aureus DSM 20231 | 0.227
S. aureus Newman | 0.0431
S. pneumoniae D39V [2] | -0.0396

fitness, B. subtilis 168 [3], main component drawn
Details | first compound 0.0625 µg/mL | first compound 0.125 µg/mL | first compound 0.25 µg/mL
partner 0.5 µg/mL | 0.865 | 0.768 | 0.27
partner 1 µg/mL | 0.793 | – | 0.102
partner 2 µg/mL | – | 0.213 | 0.057

fitness, B. subtilis 168 [3], one replicate, main component drawn
Details | partner 1.25 µg/mL | partner 1.6 µg/mL | partner 2.5 µg/mL | partner 3.2 µg/mL | partner 4 µg/mL | partner 5 µg/mL | partner 6.4 µg/mL | partner 8 µg/mL | partner 16 µg/mL
first compound 0.0625 µg/mL | 0.861 | 0.703 | 0.037 | 0.0387 | 0.0303 | 0.0263 | 0.0574 | 0.0215 | 0.0053
first compound 0.125 µg/mL | 0.378 | 0.504 | 0.0311 | 0.0535 | 0.0234 | 0.0338 | 0.0847 | 0.0224 | 0.0101
first compound 0.25 µg/mL | 0.078 | 0.0505 | 0.0563 | 0.0642 | 0.0357 | 0.0313 | 0.0596 | 0.0124 | 0.007

fitness, S. pneumoniae D39V [4]
Details | partner 0.4275 µg/mL | partner 0.855 µg/mL | partner 1.6 µg/mL | partner 1.71 µg/mL | partner 3.2 µg/mL | partner 6.4 µg/mL
first compound 2 µg/mL | 0.957 | ≥ 1 | 0.0179 | 0.0948 | 0.0145 | 0.0183
first compound 4 µg/mL | 0.999 | ≥ 1 | 0.0111 | 0.07 | 0.0177 | 0.0081
first compound 8 µg/mL | 0.99 | 0.986 | 0.0051 | 0.0917 | 0.0325 | 0.0106

CC1=C(C(=O)O)N2C(=O)[C@@H](NC(=O)[C@H](N)c3ccccc3)[C@H]2SC1 [Cephalexin] + CO[C@@H]1[C@@H](OC(N)=O)[C@@H](O)[C@H](Oc2ccc3c(O)c(NC(=O)c4ccc(O)c(CC=C(C)C)c4)c(=O)oc3c2C)OC1(C)C [Novobiocin]
Details | Bliss interaction score
B. subtilis 168 [1] | 0.0738
S. aureus DSM 20231 | 0.0648
S. aureus Newman | 0.0794
S. pneumoniae D39V [2] | -0.0986

fitness, B. subtilis 168 [3]
Details | first compound 0.125 µg/mL | first compound 0.25 µg/mL | first compound 0.5 µg/mL
partner 0.0125 µg/mL | 0.97 | 0.978 | 0.98
partner 0.025 µg/mL | 0.918 | 0.936 | 0.93
partner 0.05 µg/mL | 0.984 | 0.972 | 0.97

fitness, B. subtilis 168 [3], one replicate
Details | first compound 0.25 µg/mL | first compound 0.5 µg/mL | first compound 1 µg/mL
partner 0.125 µg/mL | 0.95 | 0.839 | 0.946
partner 0.25 µg/mL | 0.857 | 0.866 | 0.926
partner 0.5 µg/mL | 0.603 | 0.49 | 0.593

CC[C@H]1OC(=O)[C@H](C)[C@@H](O[C@H]2C[C@@](C)(OC)[C@@H](O)[C@H](C)O2)[C@H](C)[C@@H](O[C@@H]2O[C@H](C)C[C@H](N(C)C)[C@H]2O)[C@](C)(O)C[C@@H](C)CN(C)[C@H](C)[C@@H](O)[C@]1(C)O [Azithromycin] + C[C@H]1c2cccc(O)c2C(=O)C2=C(O)[C@]3(O)C(=O)C(C(N)=O)=C(O)[C@@H](N(C)C)[C@@H]3[C@@H](O)[C@@H]21 [Doxycycline]
Details | Bliss interaction score
B. subtilis 168 [1] | -0.362
S. aureus DSM 20231 | -0.261
S. aureus Newman | -0.153
S. pneumoniae D39V [2] | -0.139

Details | fitness
B. subtilis 168 [3], first compound 0.25 µg/mL, partner 0.02 µg/mL | 0.816

B. subtilis 168 [3], first compound 2 µg/mL, one replicate
Details | fitness
partner 0.02 µg/mL | 0.0856
partner 0.04 µg/mL | 0.0565
partner 0.08 µg/mL | 0.115

CC1=C(C(=O)O)N2C(=O)[C@@H](NC(=O)[C@H](N)c3ccccc3)[C@H]2SC1 [Cephalexin] + COc1cc(Cc2cnc(N)nc2N)cc(OC)c1OC [Trimethoprim]
Details | Bliss interaction score
B. subtilis 168 [1] | 0.113
S. aureus DSM 20231 | -0.058
S. aureus Newman | -0.0582
S. pneumoniae D39V [2] | 0.0759

fitness, B. subtilis 168 [3]
Details | first compound 0.125 µg/mL | first compound 0.25 µg/mL | first compound 0.5 µg/mL | first compound 1 µg/mL
partner 0.25 µg/mL | – | 0.685 | – | 0.699
partner 0.5 µg/mL | 0.445 | 0.465 | 0.517 | 0.528

fitness, B. subtilis 168 [3], one replicate
Details | partner 0.1 µg/mL | partner 0.125 µg/mL | partner 0.2 µg/mL | partner 0.4 µg/mL | partner 1 µg/mL | partner 2 µg/mL
first compound 0.125 µg/mL | – | – | – | – | 0.48 | 0.501
first compound 0.25 µg/mL | 0.915 | 0.749 | 0.791 | 0.533 | 0.402 | 0.418
first compound 0.5 µg/mL | 0.884 | 0.758 | 0.809 | 0.565 | 0.372 | 0.509
first compound 1 µg/mL | 0.879 | 0.759 | 0.86 | 0.572 | – | –

From the supplement of paper PMC10627819
